According to patent publication US5854250A, “N-benzoylamino acid derivatives, pharmaceutical compositions containing them and process of preparing same” (Gyogyszerkutato Intezet KFT, priority 1997, dated 1998):
pIC50: −log10 of the molar value.

How the values were obtained:
[1] = tested on: heart-damaging effect of vasopressin; conditions: G. Razzaboni et al.; cited from earlier work
arachidonic acid = test: iron(II)-dependent peroxidation of arachidonic acid; format: biochemical; conditions: 37° C., in methanol; iron(II) initiated; thiobarbituric acid-reactive products, 535 nm; read-out: IC50 on arachidonic acid substrate
Procedure: A) The effect of compounds of general formula (I) on the iron(II)-dependentperoxidation of arachidonic acid
The peroxidation of arachidonic acid was measured by using the method of J. M. Braughler [J. Biol. Chem. 262, 10438 (1986)] at 37° C. in methanol. The compound to be tested was investigated at various concentrations. The peroxidation was initiated by adding 10^-4 mol of iron(II) (ferrous) ion (to result in a final volume of 0.5 ml).
(§1) The thiobarbituric acid-reactive products were determined by a modification of J. A. Buege [Meth. Enzymology 52, 302 (1978)] as follows. 0.55 ml of 2% thiobarbituric acid was added to the solution and the samples were boiled for 20 minutes. After cooling down, the samples were diluted with distilled water, then chloroform was added. After centrifuging the tubes at 400×g for 7 minutes, the quantity of the thiobarbituric acid-reactive products was determined in the supernatant by spectrophotometry at 535 nm. The effect of the compound to be tested was characterized by its IC50 value (i.e. the concentration resulting in an 50% inhibition). α-Tocopherol was used as reference compound.

brain homogenate = test: iron(II) ion-dependent peroxidation of brain homogenate; format: biochemical, OFA rats; conditions: rat brain homogenate in Krebs buffer; iron(II) initiated
Procedure: as §1
B) The effect of compounds of general formula (I) on the iron(II) ion-dependent peroxidation of brain homogenate
The measurement was carried out by using the method of J. M. Braughler [J. Biol. Chem. 262, 10438 (1987)].
In these experiments OFA rats with a body-weight of 150-200 g were decapitated and brain homogenates were prepared in Krebs buffer solution, then the Method A) was followed.

brain microsomes = test: NADPH-dependent peroxidation of brain microsomes; format: biochemical, OFA rats; conditions: rat brain microsomes, pH 6.8, 15 minutes, read-out: IC50 on brain microsome
Procedure: C) The effect of compounds of general formula (I) on the NADPH-dependent peroxidation of brain microsomes
This study was carried out by using the method of T. J. Player and A. A. Morton [J. Neurochem. 37, 422 (1981)].
OFA rats of 3 months age were decapitated and their whole brain was homogenized in ice-cold 0.25M saccharose solution. After centrifuging the homogenate at 15000×g for 10 minutes, the supernatant was decanted and the residue was further centrifuged at 78000×g for 60 minutes. The preparation having a concentration of 10-20 mg of protein/ml was divided to aliquots.
2) Measurement of the microsomal lipid peroxidatiorn
The measurement was carried out at […] in a reaction mixture with the following composition; 0.05M Tris maleate (pH 6.8) buffer, 1.0 mM KH2 SO4, 1.0 mM ADP, 0.2 mM FeCl3 and 0.4 mM NAOPH. NAOPH was not added to the reaction mixture used for determination of the baseline activity. The reaction was initiated […] by adding 0.5 mg of membrane protein and stopped after incubation for 15 minutes. Subsequently, the samples were centrifuged at 950×g for 20 minutes. The thiobarbituric acid-reactive products were determined in 1 ml of supernatant each by using the method of Z. Dunied [Biochem. Pharmacol. 32, 2283 (1983)].

small intestine section = test: ischaemic intestine injury in rats; format: in vivo, Male CFY rats; conditions: Rattus norvegicus; 25 mg/kg oral, 2 hours before the operation; read-out: Inhibition of ischaemia (%)
Procedure: A) Effect of compounds of the general formula (I) on the ischaemic intestine injury in rats
The method of D. A. Parks et al. [Surgery 92, 869 (1985)] was employed in these experiments.
Male CFY rats with an average body-weight of 250 g were starved for 24 hours before the surgical intervention but water was allowed ad libitum. The compound to be tested was orally administered in a 25 mg/kg dose by 2 hours before the operation.
The abdominal wall was opened along the median line under ether anaesthesia. The appropriate small intestine section was made ischaemic by ligating both small branches belonging to the pancreatico-duodenal artery. The shame-operated control animals were subjected only to the surgical intervention but their blood vessels were not ligated. The wound was closed and after 2 hours the abdominal cavity of the animals was again opened under ether anaesthesia. The thickened intestinal section was removed, its length and weight were determined and the significance was calculated by Duncan's test [D. B. Duncan: Biometrics 11, 1 (1955)] (with the weights corrected for a length of 20 mm) on the one hand, between the sham-operated and ischaemized vehicle-control animals; and on the other hand, between the ischaemized control animals and ischaemized animals treated with the compound to be tested. The edema-induced weight increase in the intestinal section was expressed as percentage.

[2] = tested on: dopamine level of corpus striatum; test: neurotoxicity-inhibiting effect in mice (MPTP-induced dopamine depletion); format: in vivo, Male C-57 mice; conditions: for Dopamine level: then 50 mg/kg
Procedure: C) Study on the neurotoxicity-inhibiting effect in mice This study was carried out by using the method of R. E. Heikkila at al. [Science 224, 1451 (1984)] or by some modification of this method being very suitable to investigate compounds which are potentially active against Parkinson's disease. […] MPTP). […] One hour after the last administration, 40 mg/kg of MPTP and then an additional amount of 50 mg/kg of the compound to be tested were intraperitoneally administered. The animals were killed after 4 days, their brain was removed and the corpus striatum was separated. The dopamine level of corpus striatum was determined by high performance liquid chromatography (HPLC).

[3] = acute oral toxicity in rats; conditions: rat, in vivo
Source text: The toxicity of the compounds according to the invention was studied in rats.

[4] = tested on: reperfusion-induced arrhythmia; test: reperfusion-induced arrhythmia in rats; format: in vivo, male SPRD rats; conditions: for Average duration of VT/VF: one hour before, S ± SE/min
Procedure: B) Investigations on the model of reperfusion-induced arrhythmia in rats
In these experiments, the reperfusion-induced arrhythmia was developed in male SPRD rats weighing 400 g in average by using the method Lamontagne et al. [Fundam. Clin. Pharmacol. 3, 671 (1989)].
The chest of artificially respirated animals was opened under pentobarbital anaesthesia and a thread was implanted under the left coronary. After an equilibration period of 15 minutes, in the case of an arterial blood pressure of at least 60 Hgmm, a myocardial ischaemia was induced by ligating the coronary for 5 minutes. This was followed by a reperfusion lasting for 10 minutes. The duration of arrhythmia, ventricular tachycardia (VT) and ventricular fibrillation (VF), respectively, developed within 3 minutes after reperfusion were registered in a lead-II ECG.
The average durations of VT and VF, respectively related to 1 minute were determined and the number of deaths induced by arrhythmia was also registered.
The compound to be tested was orally administered one hour before the experiment.
The statistical data were calculated by using Duncan's test (duration of VT and VF, respectively) or the chi^2 test (number of deaths) [S. Bolton in: "Pharmaceutical Statistics", pages 169-173 (1990), Marcel Dekkar] following the variance analysis in relation to the vehicle control.

lipid peroxidation = conditions: J. M. Braughler et al.; cited from earlier work
[5] = cited from earlier work
[6] = with MPTP treatment (+), 40 mg/kg, compound 100 mg/kg i.p. once daily for 3 days, a p < 0.01, b p < 0.05 vs MPTP control
[7] = without MPTP treatment (-), 100 mg/kg i.p. once daily for 3 days

| Structure (SMILES) | pIC50 (arachidonic acid) | pIC50 (brain homogenate) | pIC50 (brain microsomes) | inhibition in vivo at 25 mg/kg (small intestine section) [%] | LD50 [3] [mg/kg] | further results |
| --- | --- | --- | --- | --- | --- | --- |
| COc1cc(C(=O)NCCCCCC(=O)O)ccc1O [6-(4-hydroxy-3-methoxybenzoyl)aminohexanoic acid] |  |  |  |  |  | activity against the heart-damaging effect of vasopressin [1]: inactive |
| O=C(O)CCCCCCCCCCCNC(=O)c1cc(O)ccc1O [Example 24] | 4.40 | 5.32 | 4.43 | 63 | > 1000 | Dopamine level, % of control ([2]; with MPTP treatment (+)): 24%; Dopamine level [2, 6]: 4,85 ± 1,7 μg/g tissue; Dopamine level, % of control ([2]; without MPTP treatment (-)): 102%; Dopamine level [2, 7]: 20,44 ± 0,6 μg/g tissue |
| O=C(O)CCCCCNC(=O)c1cc(O)ccc1O [Example 25] | 4.82 | 4.00 | 4.00 | 61 | > 1000 | No. of deaths (lethal VT/VF) ([4]; 50 mg/kg p.o.): 4/8; Average duration of VT/VF ([4]; 50 mg/kg p.o.): 37.3 ± 5.7 S/min; Average duration of VT/VF ([4]; 100 mg/kg p.o., **p < 0.01): 28.0 ± 5.1 S/min; No. of deaths (lethal VT/VF) ([4]; 100 mg/kg p.o., *p < 0.05): 1/10 |
| CCCCCCCCNC(=O)CCCCCNC(=O)c1cc(O)ccc1O [Example 29] | 4.00 | 5.05 | 5.35 | 52 | > 1000 |  |
| O=C(NCCCCCC(=O)N1CCCC1=O)c1cc(O)ccc1O [Example 30] |  |  |  | 70 |  |  |
| CCOC(=O)CCCCCCCCCCNC(=O)c1cc(O)ccc1O [Example 31, ethyl 11-[N-(2,5-dihydroxybenzoyl)amino]undecanoate] | 4.00 | 4.80 | 5.18 |  |  |  |
| CCOC(=O)CCCCCCCCCCCNC(=O)c1cc(O)ccc1O [Example 32] | 4.00 | 4.92 | 5.10 |  |  |  |
| O=C(NCCCCCC(=O)N1CCN(CCCc2ccccc2)CC1)c1cc(O)ccc1O [Example 34] | 4.00 | 4.40 | 5.07 |  |  |  |
| O=C(NCCCCCC(=O)N1CCN(c2cc(N3CCCC3)nc(N3CCCC3)n2)CC1)c1cc(O)ccc1O [Example 35] | 4.57 | 5.48 | 5.28 | 63 | > 1000 |  |
| O=C(O)CCCNC(=O)c1cc(O)ccc1O [Example 36, 4-[N-(2,5-dihydroxybenzoyl)amino]butyric acid] | 5.47 | 4.00 | 4.00 | 76 | > 1000 | No. of deaths (lethal VT/VF) ([4]; 50 mg/kg p.o.): 4/8; Average duration of VT/VF ([4]; 50 mg/kg p.o.): 33.0 ± 9.9 S/min; Average duration of VT/VF ([4]; 100 mg/kg p.o., **p < 0.01): 20.6 ± 6.3 S/min; No. of deaths (lethal VT/VF) ([4]; 100 mg/kg p.o., *p < 0.05): 0/10; Dopamine level, % of control ([2]; with MPTP treatment (+)): 33%; Dopamine level [2, 6]: 6,68 ± 1,0 μg/g tissue; Dopamine level, % of control ([2]; without MPTP treatment (-)): 103%; Dopamine level [2, 7]: 20,67 ± 0,5 μg/g tissue |
| O=C(O)CCCCNC(=O)c1cc(O)ccc1O [Example 37] | 4.51 | 4.00 | 4.00 | 73 | > 1000 |  |
| COC(=O)CCCNC(=O)c1cc(O)ccc1O [Example 40, methyl 4-[N-(2,5-dihydroxybenzoyl)amino]butanoate] |  |  |  | 72 |  |  |
| COC(=O)CCCCCNC(=O)c1cc(O)ccc1O [Example 41, Methyl 6-{[N-(2,5-dihydroxybenzoyl)amino]hexanoate}] |  |  |  | 75 |  |  |
| C[C@@H]1C[C@H]2[C@@H]3CCC4=CC(=O)C=C[C@]4(C)C3=CC[C@]2(C)[C@H]1C(=O)CN1CCN(c2cc(N3CCCC3)nc(N3CCCC3)n2)CC1 [Example U74006F] |  |  |  |  |  | inhibition of lipid peroxidation (lipid peroxidation): strongly inhibited; in vivo activity [5]: proven |
| Cc1c(C)c2c(c(C)c1O)CCC(C)(CCCC(C)CCCC(C)CCCC(C)C)O2 (stereo not drawn) [α-Tocopherol, reference compound] | 5.82 | 5.15 | < 4.00 |  |  | Average duration of VT/VF ([4]; 100 mg/kg p.o., **p < 0.01): 33.1 ± 7.1 S/min; No. of deaths (lethal VT/VF) ([4]; 100 mg/kg p.o., *p < 0.05): 4/8; Average duration of VT/VF ([4]; 250 mg/kg p.o., **p < 0.01): 27.2 ± 7.1 S/min; No. of deaths (lethal VT/VF) ([4]; 250 mg/kg p.o., *p < 0.05): 1/8 |
